{"source": "patent US7534806B2", "about": "“Method for treating neuropathic pain and associated syndromes” (Avigen, Inc., priority 2004, dated 2009)", "key": {"[1]": {"test_system": "mechanical allodynia in rat chronic constriction injury (CCI) model", "experiment": "von Frey test of mechanical allodynia in rat chronic constriction injury (CCI) model of neuropathic pain", "format": "in vivo"}, "[2]": {"experiment": "Dose selection study: rat tolerability to intraperitoneal ibudilast", "format": "in vivo", "description": "Dose Selection Study: Preliminary studies were designed to assess rat tolerability to single and multiple intraperitoneal administrations of ibudilast. […] These included extended head, increased respiratory rate, occasional circling behavior and vocalization, and lethargy."}, "[3]": {"test_system": "astrocyte activation (Glial Fibrillary Acidic Protein staining)", "experiment": "GFAP immunohistochemistry of lumbar spinal cord from CCI rats (astrocyte activation)", "format": "in vivo, rat", "conditions": "7.5 mg/kg ip BID for 5 days", "description": "Study of Attenuation of Glial Cell Activation in Ibudilast-Treated CCI Rats: At the end of the 5-day study, animals (4/group) from the CCI vehicle control or CCI ibudilast group were euthanized and lumbar spinal cord tissue was isolated and stained for astrocyte activation with an antibody reactive against Glial Fibrillary Acidic Protein (GFAP) as described in […] and J A DeLeo, Brain Research (2002) 956:294-301. FIG. 6 depicts a typical staining profile from CCI vehicle-treated animals. Enlarged (activated) astrocytes, typically observed in subjects with neuropathic pain (CCI rats in this case), are visible in the CCI group."}, "in vivo": {"experiment": "in vivo", "conditions": "rat", "procedure": "Pharmacokinetics. Plasma Ibudilast Concentrations Correlating with Efficacy: Dedicated pharmacokinetic studies in normal rats were performed with ibudilast dosing i.p. or p.o. in order to correlate drug plasma levels with changes in mechanical allodynia (i.e. neuropathic pain efficacy). Following dosing (time t=0), serial bleeding from n=3 rats/time point and 6 time points interspersed between 5 min and 6 hr was obtained, plasma was isolated, and ibudilast concentrations were determined by a HPLC and two-dimensional mass spectrometry (LC/MS/MS) method (described in Example 4) sensitive to ≦1 ng/ml. […] Moreover, pharmacokinetic-pharmacodynamic analyses involving PK parameters including Cmax, area under the curve (AUC), and elimination half-life (t1/2) indicated Cmax is an important parameter in establishing efficacy.\n(§1) Tissue Concentration Analysis: A solution of ibudilast (Haorui) at 0.5 mg/ml in DMSO was used as the working stock. A solution of ibudilast at 0.5 mg/ml in DMSO was prepared using the powdered ibudilast provided with the study samples and used as the working stock. Calibration standards in plasma were prepared by diluting each 0.5 mg/ml stock 1 in 100 into rat plasma to 5000 ng/ml (5 μl+495 μl), then diluting further, to 2.29 ng/ml, by 3-fold serial dilution with plasma. Standards 3, 5 and 7 were used as low, mid and high QC samples, respectively.\n(§2) Calibration standards, QC and plasma study samples were prepared for HPLC injection by precipitating 25 μl of plasma with 3× volumes (75 μl) of ice cold acetonitrile containing 50 ng/ml diphenhydramine and 100 ng/ml dextromethorphan as the internal standards. Tissue study samples were prepared for HPLC injection by adding 1 μl of water per mg of tissue plus 3× volumes (relative to water) of ice cold acetonitrile containing 50 ng/ml diphenhydramine and 100 ng/ml dextromethorphan as the internal standards, then homogenized with an electric homogenizer. Following centrifugation at 6100 g for 30 minutes, 40 μl of each supernatant was diluted with 200 μl of 0.2% formic acid in water and analyzed by the following LC/MS/MS conditions: • HPLC: Shimadzu VP System • Mobile Phase: 0.2% formic acid in water (A) and in methanol (B) • Column: 2×10 mm Peeke Scientific DuraGel G C18 guard cartridge • Injection Volume: 100 μl • Gradient: 5-95% B in 2 minutes after a 0.75 minute wash • Flow Rate: 400 μl/min • Mass Spectrometer: Applied Biosystems/MDS SCIEX API 3000 • Interface: TurboIonSpray (ESI) at 400° C. • Ionization Mode: Positive Ion • Q1/Q3 Ions: 231.2/161.2 for ibudilast Studies and Results"}, "[4]": {"test_system": "mechanical allodynia in rat Chung model", "experiment": "von Frey test of mechanical allodynia in rat Chung model of neuropathic pain", "format": "in vivo", "procedure": "Test Agents: Haorui and Sigma ibudilast was formulated as described above. Ibudilast was administered at 10 mg/kg twice daily, (3.7 ml/kg of 2.7 mg/ml in 35% PEG/saline) i.p. each morning (typically 8 am) and pm (typically 3 pm). Animals: Pathogen-free adult male Wistar rats (150-200 g; Elevage Janvier) were used in all experiments. Rats were housed in temperature (23+/−3° C.) and light (12:12 light: dark; lights on at 0700 hr) controlled rooms with standard rodent chow and water available ad libitum. Behavioral testing was performed during the light cycle. Chung model: Rats were anesthetized under isoflurane (4-5% induction and 2-3% maintenance in 100% oxygen) and an incision at the L4-S2 levels was performed to expose the left L5 and L6 spinal nerves. A ligature was tied tightly around each nerve. The wound was then sutured. The rats received an injection of clamoxil and were allowed to recover. Sham controls were subjected to the same surgical procedure except that the nerves were not ligated. […] Multi-day Study for Neuropathic Pain Efficacy: A 3-day efficacy study was undertaken wherein the animals (n=3-4/group for shams and 5/group for Chung animals) were administered 10 mg/kg ibudilast or 35% PEG/saline vehicle twice daily and mechanical allodynia was monitored at various time intervals post-dosing. […] A pre-dose reading was acquired each day in order to assess durability of efficacy."}, "[5]": {"test_system": "mechanical allodynia in rat model of taxol-induced neuropathic pain", "experiment": "von Frey test of mechanical allodynia in rat model of taxol-induced neuropathic pain", "format": "in vivo", "procedure": "Test Agents: Ibudilast was formulated as described above. Ibudilast was administered at 7.5 mg/kg (2.7 ml/kg of 2.8 mg/ml in 35% PEG/saline i.p. each morning (typically 8 am) and pm (typically 3 pm). Animals: Pathogen-free adult male Sprague-Dawley rats (280-350 g; Harlan Labs) were used in all experiments. Rats were housed in temperature (23+/−3° C.) and light (12:12 light: dark; lights on at 0700 hr) controlled rooms with standard rodent chow and water available ad libitum. Behavioral testing was performed during the light cycle. Taxol Model: Neuropathic pain was induced by administration of 4 i.p. injections on alternate days (Day 0, 2, 4, and 6) of 1 mg/kg taxol (Paclitaxel®, cumulative dose 4 mg/kg). Neuropathic pain onset was maximal around day 19 post taxol administration (Day 0). Ibudilast or vehicle control treatment initiated at either day 19 (treatment paradigm) or day 12 (prevention paradigm). Allodynia results were determined prior to the morning administration of vehicle or ibudilast. Behavioral Measures von Frey Test: The von Frey test was performed within the sciatic or saphenous innervation area of the hindpaws as previously described above for the CCI model. All testing was conducted in the am prior to the morning dose of ibudilast for that day. Multi-day Study for Neuropathic Pain Efficacy: 7.5 mg/kg Ibudilast was administered twice daily for 7 days starting day 20 after the first taxol dose (Day 0). Mechanical allodynia was assessed prior to the first dose of ibudilast each day. Prevention of Taxol-Induced Neuropathy: A second study was performed identical in nature to the multi-day study described above except that ibudilast or vehicle control administrations were initiated on day 12 just as allodynia was becoming clearly evident."}, "[6]": {"experiment": "Rat ibudilast plasma PK and tissue distribution (plasma, muscle, brain, spinal cord)", "format": "in vivo", "procedure": "Test Agents: Ibudilast was prepared in 15% ethanol/saline. Drug stability and concentration were validated by HPLC/MS/MS.\nAnimals: Pathogen-free adult male Sprague-Dawley rats (280-350 g; Harlan Labs) were used in all experiments. Rats were housed in temperature (23+/−3° C.) and light (12:12 light: dark; lights on at 0700 hr) controlled rooms with standard rodent chow and water available ad libitum. Behavioral testing was performed during the light cycle.\nPK Analysis: Rats (n=3/group) were administered 5 mg/kg ibudilast, i.p. and plasma, muscle, brain, and spinal cord were harvested at 5, 15, 60, 180, and 420 min post administration.\nas §1\nas §2, with “Tissue study samples were prepared for HPLC injection by adding 1 μl of water per mg of tissue plus 3× volumes (relative to water) of ice cold acetonitrile containing 50 ng/ml diphenhydramine and 100 ng/ml dextromethorphan as the internal standards, then homogenized with an electric homogenizer.” left out"}, "[7]": {"conditions": "humans, cited from earlier work"}, "activated microglia": {"test_system": "activated microglia", "conditions": "dose-dependent; Mizuno et al. 2004; cited from earlier work"}, "[8]": {"conditions": "administered systemically; Sugiyama et al. 1993; cited from earlier work"}}, "note": "Entries after “also recorded” stand apart in the source; their conditions may differ."}
{"smiles": "CC(C)C(=O)c1c(C(C)C)nn2ccccc12", "note": "[Ibudilast, 3-isobutyryl-2-isopropylpyrazolo[1,5-a]pyridine]", "values": [{"measurement": "days of treatment after which attenuation became durable (pm dosing to next day's pre-am test)", "setting": "[1]; 21 mg/kg p.o. twice daily", "result": 2, "unit": "days"}, {"measurement": "earliest time of attenuation of allodynia after the first dose", "setting": "[1]; 21 mg/kg p.o. twice daily", "result": 4, "unit": "h"}, {"measurement": "attenuation of allodynia, oral twice daily", "setting": "[1]; 21 mg/kg p.o. twice daily 2 days then 25.5 mg/kg 3 days, 35% PEG/saline", "result": "Attenuation of allodynia was observed"}, {"measurement": "days of dosing to durable efficacy lasting overnight", "setting": "[1]; 50 mg/kg oral gavage once daily", "result": "≤ 7", "unit": "days"}, {"measurement": "magnitude of allodynia, oral once daily", "setting": "[1]; 50 mg/kg oral gavage once daily, 10% HCO-60, 10% PEG400 in saline, following 2 days of dosing, shortly after morning dose", "result": "significantly attenuated the magnitude of allodynia"}, {"measurement": "magnitude of allodynia (50% withdrawal threshold), multi-day study", "setting": "[1]; 2.5, 7.5 or 10 mg/kg i.p. twice daily, 1 week, significant at +2 hr post-administration", "result": "attenuated the magnitude of allodynia"}, {"measurement": "time after treatment at which reversal of neuropathic pain was still evident", "setting": "[1]; doses >2.5 mg/kg i.p. bid, within two days of regimen", "result": 16, "unit": "h"}, {"measurement": "paw withdrawal thresholds in ibudilast sham animals", "setting": "[1]; sham-operated rats, single i.p. 10-15 mg/kg", "result": "no changes in paw withdrawal thresholds"}, {"measurement": "time at which reduction in allodynia was apparent", "setting": "[1]; single i.p. 10-15 mg/kg", "result": 1, "unit": "h"}, {"measurement": "time of maximum reduction in allodynia", "setting": "[1]; single i.p. 10-15 mg/kg", "result": 2, "unit": "h"}, {"measurement": "time of return to baseline", "setting": "[1]; single i.p. 10-15 mg/kg", "result": 16, "unit": "h"}, {"measurement": "acute reduction in allodynia relative to CCI vehicle animals", "setting": "[1]; single i.p. administration of 10-15 mg/kg, measured 1, 2, 4, 16 hr post-administration", "result": "showed a reduction in allodynia"}, {"measurement": "duration of adverse behavioral effects", "setting": "[2]; i.p. doses >20 mg/kg in 35% PEG/saline", "result": "up to 1 hr"}, {"measurement": "adverse behavioral effects", "setting": "[2]; i.p. doses >20 mg/kg in 35% PEG/saline, volume </=5 ml/kg", "result": "produced adverse behavioral effects"}, {"measurement": "tolerability", "setting": "[2]; rat, in vivo, ip, 15 mg/kg", "result": "generally well tolerated"}, {"measurement": "glial cell activation as measured by GFAP staining", "setting": "[3]", "result": "Reduced glial cell activation"}, {"measurement": "Cmax", "setting": "in vivo", "result": "≥ 125", "unit": "ng/mL"}, {"measurement": "Cmax", "setting": "in vivo; ip, 2.5 mg/kg", "result": 125, "unit": "ng/mL"}, {"measurement": "Cmax", "setting": "in vivo; ip, 7.5 mg/kg", "result": 1710, "unit": "ng/mL"}, {"measurement": "Cmax", "setting": "in vivo; po, 21 mg/kg", "result": 325, "unit": "ng/mL"}, {"measurement": "Cmax", "setting": "in vivo; po, 50 mg/kg", "result": 387, "unit": "ng/mL"}, {"measurement": "time after treatment at which reversal of neuropathic pain was still evident (pre-dose reading)", "setting": "[4]; 10 mg/kg i.p. b.i.d., within two days of regimen", "result": 16, "unit": "h"}, {"measurement": "magnitude of allodynia (50% withdrawal threshold)", "setting": "[4]; 10 mg/kg i.p. twice daily, 3 days", "result": "attenuated the magnitude of allodynia"}, {"measurement": "prevention of taxol-induced neuropathy development", "setting": "[5]; 7.5 mg/kg i.p. BID initiated on day 12", "result": "prevented the further neuropathy development"}, {"measurement": "time to return to allodynic state after discontinuation", "setting": "[5]; 7.5 mg/kg i.p. twice daily", "result": "≤ 1", "unit": "days"}, {"measurement": "magnitude of allodynia, treatment of established taxol neuropathy", "setting": "[5]; 7.5 mg/kg i.p. twice daily for 7 days, measured prior to morning dose", "result": "attenuated the magnitude of allodynia; also recorded: statistically significantly different from vehicle control"}, {"measurement": "tissue distribution", "setting": "[6]; 5 mg/kg i.p.", "result": "well distributed to peripheral (e.g. muscle) and central (e.g. brain and spinal cord) tissues"}, {"measurement": "half-life", "setting": "[6]; male, Sprague-Dawley, rat, ip, 5 mg/kg i.p., plasma, muscle, brain, spinal cord, read-out: elimination half-life in all tissue compartments", "result": "1.67 to 2.32", "unit": "h"}, {"measurement": "Cmax", "setting": "[6]; male, Sprague-Dawley, rat, plasma and CNS tissues (brain, spinal cord), ip, ~5 mg/kg i.p., 15% ethanol/saline, read-out: maximal concentration (Cmax) in plasma and CNS tissues", "result": "~1000", "unit": "ng/mL"}, {"measurement": "multi-dose steady state Cmax", "setting": "[7]; 10 mg BID or TID, Cai-Li et al. 2003", "result": 45, "unit": "ng/mL"}, {"measurement": "single dose Cmax", "setting": "[7]; 10 mg, Ketas Package Insert", "result": 25, "unit": "ng/mL"}, {"measurement": "production of IL-10, NGF, GDNF and NT-4", "setting": "activated microglia", "result": "enhance"}, {"measurement": "production of nitric oxide (NO), reactive oxygen species, IL-1β, IL-6 and TNF", "setting": "activated microglia", "result": "suppress"}, {"measurement": "blood-brain barrier crossing", "setting": "[8]", "result": "crosses the blood-brain barrier"}]}
{"smiles": "CN1CC[C@]23c4c5ccc(O)c4O[C@H]2[C@@H](O)C=C[C@H]3[C@H]1C5", "note": "[morphine]", "values": [{"measurement": "reversal of allodynia in comparison to vehicle control, combination study", "setting": "[1]; 7.5 mg/kg ibudilast ip bid alone or with 1 mg/kg morphine s.c., several days", "result": "greater than that by ibudilast"}]}
